Assay results from PubChem BioAssay AID624167 (Sanford-Burnham Center for Chemical Genomics, 2012).

Columns and labels:
Assay in all cases: inhibition of PEG-3 promoter-driven reporter – cell-based, HeLa, luciferase, CREF/GAPDH counter-screen panel, dose response (AID 624167)
PEG-3 [1] = molecular target: PEG-3 (UniProt Q6IN02); settings: HeLa PEG-Prom luciferase reporter, overnight, CREF/GAPDH counter-screens, mean of runs
PEG-3 [2] = settings: HeLa PEG-Prom luciferase reporter, overnight, CREF/GAPDH counter-screens
Rat fibroblasts (CREF) = settings: CREF/GAPDH counter-screens
[3] = run 1, dose range 1, individual replicate IC50 per panel
[4] = run 2, dose range 1, individual replicate IC50 per panel

Sequence of PEG-3 (UniProt Q6IN02) (Q6IN02 whole entry, looked up): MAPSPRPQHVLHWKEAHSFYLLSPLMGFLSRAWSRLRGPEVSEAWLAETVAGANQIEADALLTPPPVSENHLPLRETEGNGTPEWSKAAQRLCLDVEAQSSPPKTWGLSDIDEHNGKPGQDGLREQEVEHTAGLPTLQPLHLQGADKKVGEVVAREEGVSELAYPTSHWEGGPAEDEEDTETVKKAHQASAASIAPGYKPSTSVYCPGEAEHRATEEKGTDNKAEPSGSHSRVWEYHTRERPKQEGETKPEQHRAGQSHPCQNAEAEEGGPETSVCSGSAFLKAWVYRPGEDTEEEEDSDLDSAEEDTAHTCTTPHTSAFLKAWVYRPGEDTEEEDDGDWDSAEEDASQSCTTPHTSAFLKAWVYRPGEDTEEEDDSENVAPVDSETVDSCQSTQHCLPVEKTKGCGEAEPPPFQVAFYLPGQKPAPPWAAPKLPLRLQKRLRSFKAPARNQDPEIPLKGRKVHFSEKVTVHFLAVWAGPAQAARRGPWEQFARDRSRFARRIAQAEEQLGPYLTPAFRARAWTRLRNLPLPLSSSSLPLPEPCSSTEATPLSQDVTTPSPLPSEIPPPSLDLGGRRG

SMILES | IC50 (PEG-3 [1]) [µM] | IC50 (PEG-3 [2]; [3]) [µM] | IC50 (PEG-3 [2]; [4]) [µM] | IC50 (Rat fibroblasts (CREF); mean of runs) [µM] | IC50 (Rat fibroblasts (CREF); [3]) [µM] | IC50 (Rat fibroblasts (CREF); [4]) [µM]
CN(c1ccc2nc3ccccc3c(=O)n2n1)C1CCCCC1 | 3.97 | 3 | 4.94 | 0.772 | 0.789 | 0.755
NC(Cc1ccc(F)cc1)c1csc(Nc2cc(Oc3ccccc3)ncn2)n1 (centres undefined) | 10.2 | 13.2 | 7.16 | 17.2 | 21.3 | 13.1
Cc1nn(-c2nc3ccccc3[nH]2)c(=O)c2ccccc12 | 0.491 | 0.51 | 0.471 | 0.331 | 0.351 | 0.311
Cc1ccc(-c2nc(-c3ccccn3)no2)cc1Cl | 1.64 | 1.19 | 2.09 | 1.31 | 1.22 | 1.4
CCOc1ccc(-c2ccc(SC)nn2)cc1 | 4.15 | 2.87 | 5.43 | 0.473 | 0.313 | 0.632
O=C1C(Cl)=C(Nc2ccccc2)C(=O)c2ccccc21 | 7.18 | 12.5 | 1.9 | 7.13 | 4.48 | 9.78
O=C(/C=C\Nc1ccc2c(c1)OCO2)c1ccccn1 | 1.51 | 1.15 | 1.87 | 1.09 | 1.04 | 1.14
O=C(Nc1ccccn1)c1cc2ccccc2o1 | 4.54 | 5.06 | 4.01 | 1.82 | 1.35 | 2.29
COc1ccc2c(c1)sc1nc(-c3ccccc3)cn12 | 2.08 | 2.46 | 1.7 | 0.403 | 0.323 | 0.484
O=C(NC(=O)c1ccccc1)Nc1ccccn1 | 1.57 | 1.25 | 1.88 | 0.751 | 0.676 | 0.825
COc1ccc(OCc2cccc(C(=O)O)c2)cc1 | 0.327 | 0.263 | 0.39 | 10.5 | 10.2 | 10.8
OCCNc1c2ccccc2nc2ccccc12 | 8.99 | 10.2 | 7.76 | 0.77 | > 80 | 0.77
COc1ccc(C(=O)Nc2nc3ccccc3s2)c(OC)c1 | 1.75 | 2.56 | 0.95 | 0.319 | 0.328 | 0.309
S=C(NN=C(c1ccccc1)c1ccccn1)N(Cc1ccccn1)Cc1ccccn1 | 2.19 | 2.58 | 1.8 | 6.99 | 4.59 | 9.4
Cc1csc(NC(=O)c2cn3ccccc3n2)n1 | 4.15 | 2.68 | 5.62 | 1.09 | 1.11 | 1.07
Cc1nc2cc(-c3ccccc3)sc2c(=O)n1N | 1.41 | 1.49 | 1.34 | 3.4 | 3.94 | 2.87
CCOC(=O)c1c(-n2c(C)cc(C=C3C(=O)NC(=S)NC3=O)c2C)sc2c1CCCC2 | 5.69 | 5.9 | 5.47 | 11.3 | 20.3 | 2.35
C=CCn1c(C)cc(C2=NNC(=NCC)SC2)c1C | 2.37 | 3.02 | 1.72 | 1.72 | 1.49 | 1.95
CCOc1ccc(C(=O)O/N=C(\N)c2ccccn2)cc1 | 3.41 | 5.04 | 1.77 | 2.25 | 2.35 | 2.15
Cc1cc(C2=NNC(=NC3CC3)SC2)c(C)n1-c1ccccc1F | < 0.2 | < 0.2 | < 0.2 | 3.3 | 2.72 | 3.89
O=c1cc(-c2ccc(O)cc2)oc2ccc3ccccc3c12 | 4.08 | 4.65 | 3.52 | 1.23 | 0.883 | 1.57
COc1cc(NS(C)(=O)=O)ccc1Nc1c2ccccc2nc2ccccc12 | 10.7 | 11 | 10.4 | 4.97 | 8.61 | 1.33
COC1=C(Br)C(=O)c2ncccc2C1=O | 6.65 | 8.01 | 5.3 | 14.2 | 8.91 | 19.4
c1cc2c(cc1C1=NNC(=NC3CC3)SC1)OCCO2 | 0.764 | 0.657 | 0.872 | 4.72 | 1.39 | 8.06
